What was measured:
[1] = Intranasal bioavailability in rats, LC/MS/MS; details: male, Sprague-Dawley, rat, plasma, inhaled or intranasal, 3 mg/kg
[2] = Oral bioavailability in rats at escalating doses, LC/MS/MS; details: rat
Anesthetized Dog = assay: Cardiovascular effects after intravenous bolus injection in anesthetized dogs
[3] = biological target: T1, human recombinant norepinephrine transport binding sites (Homo sapiens, UniProt P23975); assay: Radioligand binding, norepinephrine transporter; details: 10^−9 to 10^−5 M
T1 construct: purchased Novascreen, Hanover, Md
T1 sequence (P23975 whole entry): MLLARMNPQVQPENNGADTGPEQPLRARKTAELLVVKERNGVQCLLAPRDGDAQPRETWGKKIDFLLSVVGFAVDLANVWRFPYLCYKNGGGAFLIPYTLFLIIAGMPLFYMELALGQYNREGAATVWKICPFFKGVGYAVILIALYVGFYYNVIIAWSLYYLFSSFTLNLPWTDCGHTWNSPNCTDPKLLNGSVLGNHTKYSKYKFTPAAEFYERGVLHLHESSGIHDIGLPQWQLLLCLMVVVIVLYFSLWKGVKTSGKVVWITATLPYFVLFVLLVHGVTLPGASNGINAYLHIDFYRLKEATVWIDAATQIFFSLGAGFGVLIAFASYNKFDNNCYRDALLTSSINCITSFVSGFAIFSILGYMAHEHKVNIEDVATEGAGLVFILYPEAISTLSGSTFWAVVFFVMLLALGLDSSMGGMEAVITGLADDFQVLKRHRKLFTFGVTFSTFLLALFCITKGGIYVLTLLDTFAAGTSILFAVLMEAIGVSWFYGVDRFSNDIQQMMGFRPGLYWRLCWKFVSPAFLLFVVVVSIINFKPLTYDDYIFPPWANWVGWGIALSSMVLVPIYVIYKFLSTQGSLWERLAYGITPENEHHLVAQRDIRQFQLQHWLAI

[4] = Intranasal bioavailability in rats, plasma d-amphetamine by ELISA; details: rat, 3 mg/kg
[5] = male, Sprague-Dawley, in vivo, po, 3 mg/kg
[6] = male, Sprague-Dawley, in vivo, po, 6 mg/kg
[7] = male, Sprague-Dawley, in vivo, po, 12 mg/kg
[8] = male, Sprague-Dawley, in vivo, po, 60 mg/kg

With `CC(Cc1ccccc1)NC(=O)C(N)CCCCN` [L-lysine-d-amphetamine, 2,6-diaminohexanoic acid-(1-methyl-2-phenylethyl)-amide] the AUC(0-inf) [1] was 9140 ng·h/mL, the AUC(0-t) [1] was 2580 ng·h/mL and the Cmax [1] was 3350 ng/mL. It also gave a Tmax [1] of 15 min, a Tmax ([2]; male, Sprague-Dawley, in vivo, po) of 15 to 180 min and an AUC(0-t) [2, 5] of 330 ng·h/mL. The Cmax [2, 5] was 135 ng/mL, the Tmax [2, 5] was 90 min and the AUC(0-t) [2, 6] was 1160 ng·h/mL. It also gave a Cmax [2, 6] of 677 ng/mL, a Tmax [2, 6] of 15 min and an AUC(0-inf) [2, 7] of 4510 ng·h/mL. The AUC(0-t) [2, 7] was 4240 ng·h/mL, the Cmax [2, 7] was 856 ng/mL and the Tmax [2, 7] was 60 min. It also gave an AUC(0-t) [2, 8] of 8230 ng·h/mL, a Cmax [2, 8] of 1870 ng/mL and a Tmax [2, 8] of 180 min. The Tmax ([2]; male, Sprague-Dawley, in vivo, po, […]) was 15 min, the “Cmax of d-amphetamine compared to d-amphetamine sulfate” value ([2]; oral, 1.5 to 6 mg/kg) was “reduced by approximately half” and the “DAP % Change from respective Time 0” value (Anesthetized Dog; 0.5 mg/kg, TIME 0) was 0%. For the same molecule, the “DAP - diastolic arterial pressure” value (Anesthetized Dog; 0.5 mg/kg, TIME 0) was 51 mmHg, the “LVP % Change from respective Time 0” value (Anesthetized Dog; 0.5 mg/kg, TIME 0) was 0% and the “LVP - left ventricular pressure” value (Anesthetized Dog; 0.5 mg/kg, TIME 0) was 86 mmHg. For the same molecule, the “MAP % Change from respective Time 0” value (Anesthetized Dog; 0.5 mg/kg, TIME 0) was 0%, the “MAP - mean arterial pressure” value (Anesthetized Dog; 0.5 mg/kg, TIME 0) was 64 mmHg and the “SAP % Change from respective Time 0” value (Anesthetized Dog; 0.5 mg/kg, TIME 0) was 0%. The “SAP - systolic arterial pressure” value (Anesthetized Dog; 0.5 mg/kg, TIME 0) was 84 mmHg, the “DAP % Change from respective Time 0” value (Anesthetized Dog; 0.5 mg/kg, TIME 5) was 3% and the “DAP - diastolic arterial pressure” value (Anesthetized Dog; 0.5 mg/kg, TIME 5) was 52 mmHg. The “LVP % Change from respective Time 0” value (Anesthetized Dog; 0.5 mg/kg, TIME 5) was 2%, the “LVP - left ventricular pressure” value (Anesthetized Dog; 0.5 mg/kg, TIME 5) was 87 mmHg and the “MAP % Change from respective Time 0” value (Anesthetized Dog; 0.5 mg/kg, TIME 5) was 3%. For the same molecule, the “MAP - mean arterial pressure” value (Anesthetized Dog; 0.5 mg/kg, TIME 5) was 66 mmHg, the “SAP % Change from respective Time 0” value (Anesthetized Dog; 0.5 mg/kg, TIME 5) was 4% and the “SAP - systolic arterial pressure” value (Anesthetized Dog; 0.5 mg/kg, TIME 5) was 87 mmHg. For the same molecule, the “DAP % Change from respective Time 0” value (Anesthetized Dog; 0.5 mg/kg, TIME 15) was 1%, the “DAP - diastolic arterial pressure” value (Anesthetized Dog; 0.5 mg/kg, TIME 15) was 51 mmHg and the “LVP % Change from respective Time 0” value (Anesthetized Dog; 0.5 mg/kg, TIME 15) was 11%. For the same molecule, the “LVP - left ventricular pressure” value (Anesthetized Dog; 0.5 mg/kg, TIME 15) was 95 mmHg, the “MAP % Change from respective Time 0” value (Anesthetized Dog; 0.5 mg/kg, TIME 15) was 5% and the “MAP - mean arterial pressure” value (Anesthetized Dog; 0.5 mg/kg, TIME 15) was 67 mmHg. For the same molecule, the “SAP % Change from respective Time 0” value (Anesthetized Dog; 0.5 mg/kg, TIME 15) was 11%, the “SAP - systolic arterial pressure” value (Anesthetized Dog; 0.5 mg/kg, TIME 15) was 93 mmHg and the “DAP % Change from respective Time 0” value (Anesthetized Dog; 0.5 mg/kg, TIME 25) was 8%. The “DAP - diastolic arterial pressure” value (Anesthetized Dog; 0.5 mg/kg, TIME 25) was 55 mmHg, the “LVP % Change from respective Time 0” value (Anesthetized Dog; 0.5 mg/kg, TIME 25) was 22% and the “LVP - left ventricular pressure” value (Anesthetized Dog; 0.5 mg/kg, TIME 25) was 105 mmHg. The “MAP % Change from respective Time 0” value (Anesthetized Dog; 0.5 mg/kg, TIME 25) was 15%, the “MAP - mean arterial pressure” value (Anesthetized Dog; 0.5 mg/kg, TIME 25) was 73 mmHg and the “SAP % Change from respective Time 0” value (Anesthetized Dog; 0.5 mg/kg, TIME 25) was 25%. For the same molecule, the “DAP % Change from respective Time 0” value (Anesthetized Dog; 0.5 mg/kg, TIME 30) was 14%, the “DAP - diastolic arterial pressure” value (Anesthetized Dog; 0.5 mg/kg, TIME 30) was 58 mmHg and the “LVP % Change from respective Time 0” value (Anesthetized Dog; 0.5 mg/kg, TIME 30) was 26%. The “MAP % Change from respective Time 0” value (Anesthetized Dog; 0.5 mg/kg, TIME 30) was 21%, the “MAP - mean arterial pressure” value (Anesthetized Dog; 0.5 mg/kg, TIME 30) was 77 mmHg and the “SAP % Change from respective Time 0” value (Anesthetized Dog; 0.5 mg/kg, TIME 30) was 28%. The “DAP % Change from respective Time 0” value (Anesthetized Dog; 1.0 mg/kg, TIME 0) was 0%, the “DAP - diastolic arterial pressure” value (Anesthetized Dog; 1.0 mg/kg, TIME 0) was 55 mmHg and the “LVP % Change from respective Time 0” value (Anesthetized Dog; 1.0 mg/kg, TIME 0) was 0%. The “MAP % Change from respective Time 0” value (Anesthetized Dog; 1.0 mg/kg, TIME 0) was 0%, the “MAP - mean arterial pressure” value (Anesthetized Dog; 1.0 mg/kg, TIME 0) was 74 mmHg and the “SAP % Change from respective Time 0” value (Anesthetized Dog; 1.0 mg/kg, TIME 0) was 0%. For the same molecule, the “SAP - systolic arterial pressure” value (Anesthetized Dog; 1.0 mg/kg, TIME 0) was 105 mmHg, the “DAP % Change from respective Time 0” value (Anesthetized Dog; 1.0 mg/kg, TIME 5) was 15% and the “DAP - diastolic arterial pressure” value (Anesthetized Dog; 1.0 mg/kg, TIME 5) was 63 mmHg. For the same molecule, the “LVP % Change from respective Time 0” value (Anesthetized Dog; 1.0 mg/kg, TIME 5) was 11%, the “LVP - left ventricular pressure” value (Anesthetized Dog; 1.0 mg/kg, TIME 5) was 120 mmHg and the “MAP % Change from respective Time 0” value (Anesthetized Dog; 1.0 mg/kg, TIME 5) was 15%. The “MAP - mean arterial pressure” value (Anesthetized Dog; 1.0 mg/kg, TIME 5) was 85 mmHg, the “SAP % Change from respective Time 0” value (Anesthetized Dog; 1.0 mg/kg, TIME 5) was 15% and the “DAP % Change from respective Time 0” value (Anesthetized Dog; 1.0 mg/kg, TIME 15) was 33%. The “DAP - diastolic arterial pressure” value (Anesthetized Dog; 1.0 mg/kg, TIME 15) was 73 mmHg, the “LVP % Change from respective Time 0” value (Anesthetized Dog; 1.0 mg/kg, TIME 15) was 29% and the “LVP - left ventricular pressure” value (Anesthetized Dog; 1.0 mg/kg, TIME 15) was 140 mmHg. The “MAP % Change from respective Time 0” value (Anesthetized Dog; 1.0 mg/kg, TIME 15) was 35%, the “MAP - mean arterial pressure” value (Anesthetized Dog; 1.0 mg/kg, TIME 15) was 100 mmHg and the “SAP % Change from respective Time 0” value (Anesthetized Dog; 1.0 mg/kg, TIME 15) was 35%. The “DAP % Change from respective Time 0” value (Anesthetized Dog; 1.0 mg/kg, TIME 25) was 75%, the “DAP - diastolic arterial pressure” value (Anesthetized Dog; 1.0 mg/kg, TIME 25) was 97 mmHg and the “LVP % Change from respective Time 0” value (Anesthetized Dog; 1.0 mg/kg, TIME 25) was 50%. The “MAP % Change from respective Time 0” value (Anesthetized Dog; 1.0 mg/kg, TIME 25) was 68%, the “SAP % Change from respective Time 0” value (Anesthetized Dog; 1.0 mg/kg, TIME 25) was 55% and the “DAP % Change from respective Time 0” value (Anesthetized Dog; 1.0 mg/kg, TIME 30) was 32%. The “DAP - diastolic arterial pressure” value (Anesthetized Dog; 1.0 mg/kg, TIME 30) was 73 mmHg, the “LVP % Change from respective Time 0” value (Anesthetized Dog; 1.0 mg/kg, TIME 30) was 33% and the “MAP % Change from respective Time 0” value (Anesthetized Dog; 1.0 mg/kg, TIME 30) was 32%. The “MAP - mean arterial pressure” value (Anesthetized Dog; 1.0 mg/kg, TIME 30) was 98 mmHg, the “SAP % Change from respective Time 0” value (Anesthetized Dog; 1.0 mg/kg, TIME 30) was 28% and the “DAP % Change from respective Time 0” value (Anesthetized Dog; 5.0 mg/kg, TIME 0) was 0%. The “DAP - diastolic arterial pressure” value (Anesthetized Dog; 5.0 mg/kg, TIME 0) was 71 mmHg, the “LVP % Change from respective Time 0” value (Anesthetized Dog; 5.0 mg/kg, TIME 0) was 0% and the “MAP % Change from respective Time 0” value (Anesthetized Dog; 5.0 mg/kg, TIME 0) was 0%. For the same molecule, the “MAP - mean arterial pressure” value (Anesthetized Dog; 5.0 mg/kg, TIME 0) was 95 mmHg, the “SAP % Change from respective Time 0” value (Anesthetized Dog; 5.0 mg/kg, TIME 0) was 0% and the “SAP - systolic arterial pressure” value (Anesthetized Dog; 5.0 mg/kg, TIME 0) was 132 mmHg. The “DAP % Change from respective Time 0” value (Anesthetized Dog; 5.0 mg/kg, TIME 5) was 0%, the “DAP - diastolic arterial pressure” value (Anesthetized Dog; 5.0 mg/kg, TIME 5) was 71 mmHg and the “LVP % Change from respective Time 0” value (Anesthetized Dog; 5.0 mg/kg, TIME 5) was 5%. For the same molecule, the “MAP % Change from respective Time 0” value (Anesthetized Dog; 5.0 mg/kg, TIME 5) was 4%, the “MAP - mean arterial pressure” value (Anesthetized Dog; 5.0 mg/kg, TIME 5) was 99 mmHg and the “SAP % Change from respective Time 0” value (Anesthetized Dog; 5.0 mg/kg, TIME 5) was 7%. The “DAP % Change from respective Time 0” value (Anesthetized Dog; 5.0 mg/kg, TIME 15) was 39%, the “DAP - diastolic arterial pressure” value (Anesthetized Dog; 5.0 mg/kg, TIME 15) was 98 mmHg and the “LVP % Change from respective Time 0” value (Anesthetized Dog; 5.0 mg/kg, TIME 15) was 28%. For the same molecule, the “MAP % Change from respective Time 0” value (Anesthetized Dog; 5.0 mg/kg, TIME 15) was 37%, the “MAP - mean arterial pressure” value (Anesthetized Dog; 5.0 mg/kg, TIME 15) was 130 mmHg and the “SAP % Change from respective Time 0” value (Anesthetized Dog; 5.0 mg/kg, TIME 15) was 33%. The “DAP % Change from respective Time 0” value (Anesthetized Dog; 5.0 mg/kg, TIME 25) was −3%, the “DAP - diastolic arterial pressure” value (Anesthetized Dog; 5.0 mg/kg, TIME 25) was 69 mmHg and the “LVP % Change from respective Time 0” value (Anesthetized Dog; 5.0 mg/kg, TIME 25) was 11%. For the same molecule, the “LVP - left ventricular pressure” value (Anesthetized Dog; 5.0 mg/kg, TIME 25) was 160 mmHg, the “MAP % Change from respective Time 0” value (Anesthetized Dog; 5.0 mg/kg, TIME 25) was 1% and the “MAP - mean arterial pressure” value (Anesthetized Dog; 5.0 mg/kg, TIME 25) was 96 mmHg. The “SAP % Change from respective Time 0” value (Anesthetized Dog; 5.0 mg/kg, TIME 25) was −5%, the “DAP % Change from respective Time 0” value (Anesthetized Dog; 5.0 mg/kg, TIME 30) was −1% and the “DAP - diastolic arterial pressure” value (Anesthetized Dog; 5.0 mg/kg, TIME 30) was 70 mmHg. For the same molecule, the “LVP % Change from respective Time 0” value (Anesthetized Dog; 5.0 mg/kg, TIME 30) was 13%, the “MAP % Change from respective Time 0” value (Anesthetized Dog; 5.0 mg/kg, TIME 30) was 4% and the “MAP - mean arterial pressure” value (Anesthetized Dog; 5.0 mg/kg, TIME 30) was 99 mmHg. For the same molecule, the “SAP % Change from respective Time 0” value (Anesthetized Dog; 5.0 mg/kg, TIME 30) was 0%, the “SAP - systolic arterial pressure” value (Anesthetized Dog; 5.0 mg/kg, TIME 30) was 132 mmHg and the “Effect on mean blood pressure after the first (lowest) dose” value (Anesthetized Dog; dog, IV bolus, 0.202 mg/kg d-amphetamine, equimolar to 0.5 mg/kg L-lysine-d-amphetamine) was “very little change in mean BP”. The “Increase of mean blood pressure” value (Anesthetized Dog; dog, IV bolus, approximately 30 minutes after injection) was 20-50%, the Specific binding [3] was “did not bind” and the “Release of d-amphetamine into circulation” value [4] was “did not release any significant amount of d-amphetamine”.

Source: US7375083B2, “Pharmaceutical compositions for prevention of overdose or abuse” (Shire LLC, priority 2003, dated 2008)
